Laboratory results: ChEMBL document CHEMBL1151578, “Benzopyran-4-carboxamide K+ channel openers” (Bioorg Med Chem Lett, 1993)
pEC50: −log10 of the molar value.

Key:
Rattus norvegicus [1] = species: Rattus norvegicus; experiment: Relaxation of rat aorta smooth muscle; type: functional, Muscle tissue
Rattus norvegicus [2] = species: Rattus norvegicus; experiment: Relaxation of rat aorta smooth muscle precontracted with 30 mM KCl (Negative logarithm of molar concentration required); type: functional, organism-based; details: Muscle tissue

## CC(C)NC(=O)C1=CC(C)(C)Oc2ccc([N+](=O)[O-])cc21
Rattus norvegicus [1]
  Intrinsic activity: 77.6%
Rattus norvegicus [2]
  pEC50: 6.73

## CC1(C)C=C(C(=O)NCCO)c2cc([N+](=O)[O-])ccc2O1
Rattus norvegicus [1]
  Intrinsic activity: 71.8%
Rattus norvegicus [2]
  pEC50: 6.74

## CC1(C)C=C(C(=O)NCCF)c2cc([N+](=O)[O-])ccc2O1
Rattus norvegicus [1]
  Intrinsic activity: 81.6%
Rattus norvegicus [2]
  pEC50: 7.69

## C#CCNC(=O)C1=CC(C)(C)Oc2ccc([N+](=O)[O-])cc21
Rattus norvegicus [1]
  Intrinsic activity: 80.2%
Rattus norvegicus [2]
  pEC50: 8.10

## CC1(C)C=C(C(=O)NCCC#N)c2cc([N+](=O)[O-])ccc2O1
Rattus norvegicus [1]
  Intrinsic activity: 73.1%

## CCNC(=O)C1=CC(C)(C)Oc2ccc([N+](=O)[O-])cc21
Rattus norvegicus [1]
  Intrinsic activity: 80.5%
Rattus norvegicus [2]
  pEC50: 8.34

## CCCNC(=O)C1=CC(C)(C)Oc2ccc([N+](=O)[O-])cc21
Rattus norvegicus [1]
  Intrinsic activity: 74.1%
Rattus norvegicus [2]
  pEC50: 8.24

## CNC(=O)C1=CC(C)(C)Oc2ccc([N+](=O)[O-])cc21
Rattus norvegicus [1]
  Intrinsic activity: 61%

## CC1(C)C=C(C(=O)NCC2CC2)c2cc([N+](=O)[O-])ccc2O1
Rattus norvegicus [1]
  Intrinsic activity: 89.3%
Rattus norvegicus [2]
  pEC50: 8.18

## CCCCNC(=O)C1=CC(C)(C)Oc2ccc([N+](=O)[O-])cc21
Rattus norvegicus [1]
  Intrinsic activity: 83.2%
Rattus norvegicus [2]
  pEC50: 7.66

## CNC(=O)C1=CC(C)(C)Oc2ccc(C#N)cc21
Rattus norvegicus [1]
  Intrinsic activity: 66.6%

## CC1(C)C=C(C(N)=O)c2cc([N+](=O)[O-])ccc2O1
Rattus norvegicus [1]
  Intrinsic activity: 79.8%
Rattus norvegicus [2]
  pEC50: 6.44

## CC1(C)C=C(C(=O)NC2CC2)c2cc([N+](=O)[O-])ccc2O1
Rattus norvegicus [1]
  Intrinsic activity: 78%
Rattus norvegicus [2]
  pEC50: 7.49

## CC1(C)Oc2ccc(C#N)cc2[C@H](N2CCCC2=O)[C@H]1O (single isomer, unassigned) [(-)-CROMAKALIM]
Rattus norvegicus [1]
  Intrinsic activity: 74.7%
Rattus norvegicus [2]
  pEC50: 6.77

## CC(N/C(=N\C#N)Nc1ccncc1)C(C)(C)C (stereo unspecified) [PINACIDIL ANHYDROUS]
Rattus norvegicus [1]
  Intrinsic activity: 91.9%
